Laboratory results: patent US20210332024A1, “MODULATORS OF PIN1 ACTIVITY AND USES THEREOF” (Yeda Research and Development Co. Ltd., priority 2019, published 2021)
Where “and” joins values, the source holds several entries; their conditions need not be identical. Equal values may be shown once. Read-outs that look alike come from different tables or passages of the source.

Key:
[1] = tested on: Myc transcriptional output in Mino B cells; experiment: RNA sequencing and gene set enrichment; assay type: cell-based, human; conditions: 1 μM, 6 hours
Protocol: Mino cells (acquired from the ATCC) were grown at 37° C. in a 5% CO2 humidified incubator and cultured in RPMI-1640 (Biological Industries), supplemented with 15% fetal bovine serum (Biological Industries) and 1% pen-strep solution (Biological Industries). 11×10^6 cells were incubated with 1 μM Pin1-3 (0.02% DMSO) or with 0.02% DMSO in triplicates for 6 hours. Total RNA was isolated with RNeasy™ kit (Qiagen). RNA libraries were prepared from 2 μg total RNA using SENSE™ mRNA-Seq library prep kit V2 (Lexogen). Total RNA and library quality was analyzed using Qubit™ fluorometric and TapeStation™ analysis (Agilent). Samples were sequenced using NextSeg™ 500/550 High Output Kit v2.5 (Illumina) on NextSeg™ 550.
RNA-seq reads were aligned to the human genome (hg19 assembly) using STAR [Dobin et al., Bioinformatics 2013, 29:15-21] and gene expression was determined using RSEM [L1 & Dewey, BMC Bioinformatics 2011, 12:323] and RefSeq annotations. Differential expression was computed using DESeq2 [Love et al., Genome Biol 2014, 15:550] with default parameters.
In order to test whether Pin1-3 affects Myc transcriptional output, Mino B cells were treated with Pin1-3 (1 μM) for 6 hours (in triplicates) or vehicle (DMSO), followed by a global RNA sequencing analysis to detect differentially expressed genes as the result of this perturbation. […]

Pin1 = target: T1, Pin1 (Mus musculus, UniProt Q9QUR7); experiment: In vivo Pin1 engagement, spleen competition pull-down; parameters: species or system mice
T1 construct: from tissue; host or cells: mouse spleen
Protocol: The in vivo engagement of Pin1 by Pin1-3 was then assessed using Pin1-3-DTB. Mice were treated with either vehicle, 10 mg/kg or 20 mg/kg Pin1-3 by oral gavage (QD) for 3 days, followed by lysis of the spleens for a competition pull-down experiment.

[2] = tested on: transplanted EGFP-labeled neuroblastoma cells; experiment: Primary tumor derived allograft (PDA) neuroblastoma model in zebrafish embryos; assay type: in vivo; conditions: 100 μM in the fish water, five days
Protocol: The anti-tumor activity of Pin1-3 was then assessed on the maintenance of fully transformed neuroblastoma cells in vivo in primary tumor derived allograft (PDA) models constructed in transplanted zebrafish embryos. EGFP-labeled neuroblastoma cells were dissected from 4-month-old Tg(dβh:MYCN;dβh:EGFP) donor zebrafish, disaggregated, counted and 200-400 GFP-labeled tumor cells were injected intravenously into the Duct of Cuvier (common cardinal vein) of 2 dpf zebrafish embryos [He et al., J Pathol 2012, 227:431-445]. One day after injection, 100 μM Pin1-3 or the DMSO control was added to the fish water containing embryos bearing the transplanted EGFP-labeled neuroblastoma cells. Five days later, the area of the EGFP-labeled tumor mass in treated embryos was quantified.

[3] = Pharmacokinetics, intravenous administration; assay type: in vivo, Male C57Bl/6J mice
Protocol: Male C57Bl/6J mice received Pin1-3 intravenously (as a 0.2 mg/ml solution in 5/5/90 NMP/Solutol/saline) or orally (as a 1 mg/ml solution in 5/5/90 NMP/Solutol/saline). The intravenous dosage was 2 mg/kg and the oral dosage was 10 mg/kg.

[4] = tested on: cysteine targets throughout the proteome, MDA-MB-231 cells; experiment: rdTOP-ABPP profiling of reactive cysteines; conditions: 5 μM
Protocol: (§1) MDA-MB-231 cells were cultured at 37° C. under a 5% CO2 atmosphere in DMEM culture medium supplemented with 10% FBS and 1% PS. Cells were grown to 70% confluence and incubated with DMSO or 5 μM Pin1-3 for 2 hours with serum-free medium. Cells were harvested, lysed by sonication in ice-cold PBS containing 0.1% Triton™ X-100 and centrifuged at 100,000 g for 30 minutes to remove cell debris. Then protein concentrations were determined by BCA protein assay. Proteomes were normalized to 2 mg/ml in 1 ml for each sample. Each of the DMSO and Pin1-3 incubated proteomes was treated with 100 μM iodoacetamide alkyne for 1 hour at room temperature. […] Finally, the samples were prepared, analyzed on LC-MS/MS and quantified according to procedures described in Yang et al. [Anal Chem 2018, 90:9576-9582]. […] LC-MS/MS data was analyzed by ProLuCID™ algorithm (as described by Xu et al. [J Proteomics 2015, 129:16-24]) with static modification of cysteine (+57.0215 Da) and variable oxidation of methionine (+15.9949 Da). […] The ratios were quantified by CImage™ software [Weerapana et al., Nature 2010, 468, 790-795].
(§2) This variant of the isoTOP-ABPP technique enables the site-specific quantification of cysteine binding by label-free covalent inhibitors. […] After enrichment on beads, the peptides were isotopically derivatized by triplex reductive dimethylation, cleaved and analyzed via LC-MS/MS analysis.

[5] = target: cysteine targets throughout the proteome, MDA-MB-231 cells (Homo sapiens, UniProt Q13526); experiment: rdTOP-ABPP profiling of reactive cysteines; conditions: 5 μM, two biological replicates
Protocol: as §1, §2

[6] = Metabolic stability in hepatic microsomes; assay type: in vitro ADME; conditions: liver microsomes; mouse hepatic microsomes
[7] = intravenous 2 mg/kg, individual mice No. 1-3, 2 mg/kg
[8] = male, C57Bl/6J, mouse, in vivo, iv, 2 mg/kg, Avg. of 3 mice
[9] = male, C57Bl/6J, mouse, in vivo, iv, 2 mg/kg, individual mice No. 1-3

T1 sequence (Q9QUR7 whole entry): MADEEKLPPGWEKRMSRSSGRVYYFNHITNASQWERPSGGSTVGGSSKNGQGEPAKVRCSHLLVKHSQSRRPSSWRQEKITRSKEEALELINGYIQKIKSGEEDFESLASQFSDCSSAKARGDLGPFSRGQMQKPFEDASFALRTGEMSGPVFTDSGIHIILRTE
Sequence of cysteine targets throughout the proteome, MDA-MB-231 cells (Homo sapiens, UniProt Q13526) (Q13526 whole entry): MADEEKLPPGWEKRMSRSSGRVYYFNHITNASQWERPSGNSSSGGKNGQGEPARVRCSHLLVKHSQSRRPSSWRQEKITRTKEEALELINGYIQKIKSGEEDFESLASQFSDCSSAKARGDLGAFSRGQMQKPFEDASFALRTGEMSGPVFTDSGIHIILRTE

## CC(C)(C)CN(C(=O)CCl)C1CCS(=O)(=O)C1 (stereo not drawn) [Pin1-3, 2-chloro-N-(sulfolan-3-yl)-N-neopentylacetamide]
[1]
  Myc transcriptional signature (Enrichr, ENCODE TF ChIP-seq sets): significant downregulation of Myc's transcriptional signature
  Number of genes significantly downregulated: 206 genes
Pin1; 10 mg/kg oral gavage QD for 3 days
  Mice with effective Pin1 engagement: 1 of the 3 mice
Pin1; 20 mg/kg oral gavage QD for 3 days
  Mice with effective Pin1 engagement: all 3 mice
[2]
  EGFP-labeled tumor mass: tumor masses decreased in size
[3]; intravenous 2 mg/kg, Avg. of 3 mice
  AUC % extrap.: 0.23%
[3]; [7]
  AUC % extrap.: 0.36% and 0.17% and 0.18%
  AUCINF obs.: 294012 ng·min/mL and 365536 ng·min/mL
  AUClast: 293517 min*ng/ml and 17.4 hr*μM and 364891 min*ng/ml and 21.6 hr*μM
  Cl obs.: 6.80 mL/min/kg and 5.47 mL/min/kg
  Cmax: 1620 ng/mL and 2030 ng/mL
  MRTINF obs.: 113 min and 109 min
  T1/2: 40.8 min and 43.2 min
  VSS obs.: 0.77 L/kg and 0.60 L/kg
[3]; intravenous 2 mg/kg, individual mice No. 1-3, 2 mg/kg, read-out: Cmax
  Cmax: 5.76 µM and 7.22 µM
[3]; [8]
  AUC(0-t): 6050 ng·h/mL and 21.5 µM·h
  half-life: 45.6 min
[3]; male, C57Bl/6J, mouse, in vivo, iv, 2 mg/kg, Avg. of 3 mice, read-out: AUCINF obs. (converted)
  AUC(0-inf): 6070 ng·h/mL
[3]; male, C57Bl/6J, mouse, in vivo, iv, 2 mg/kg, Avg. of 3 mice, read-out: Cl obs.
  clearance: 5.63 mL/min/kg
[3]; male, C57Bl/6J, mouse, in vivo, iv, 2 mg/kg, Avg. of 3 mice, read-out: Cmax
  Cmax: 2090 ng/mL and 7.42 µM
[3]; male, C57Bl/6J, mouse, in vivo, iv, 2 mg/kg, Avg. of 3 mice, read-out: MRTINF obs.
  MRT inf: 108 min
[3]; male, C57Bl/6J, mouse, in vivo, iv, 2 mg/kg, Avg. of 3 mice, read-out: VSS obs.
  Vd: 0.61 L/kg
[3]; [9]
  AUC(0-t): 7190 ng·h/mL and 25.6 µM·h
  half-life: 53.4 min
[3]; male, C57Bl/6J, mouse, in vivo, iv, 2 mg/kg, individual mice No. 1-3, read-out: AUCINF obs. (converted)
  AUC(0-inf): 7210 ng·h/mL
[3]; male, C57Bl/6J, mouse, in vivo, iv, 2 mg/kg, individual mice No. 1-3, read-out: Cl obs.
  clearance: 4.62 mL/min/kg
[3]; male, C57Bl/6J, mouse, in vivo, iv, 2 mg/kg, individual mice No. 1-3, read-out: Cmax
  Cmax: 2610 ng/mL and 9.28 µM
[3]; male, C57Bl/6J, mouse, in vivo, iv, 2 mg/kg, individual mice No. 1-3, read-out: MRTINF obs.
  MRT inf: 102 min
[3]; male, C57Bl/6J, mouse, in vivo, iv, 2 mg/kg, individual mice No. 1-3, read-out: VSS obs.
  Vd: 0.47 L/kg
[3]; male, C57Bl/6J, mouse, in vivo, intravenous 2 mg/kg, individual mice No. 1-3
  Tmax: 30 min
[4]
  Competition ratio R, all other identified cysteines: below 2.5
[5]
  Competition ratio R, Cys113 of Pin1: 15
[6]
  half-life: 41 min
